Where two headings read alike, the source gives them in different places.
Key:
Test in all cases: KinomeScan kinase panel, single concentration 10 µM
Type in all cases: binding
KinomeScan kinase panel [1] = target: T1, KinomeScan kinase panel (Homo sapiens, UniProt P04049); details: read-out: score (%)
T1 construct: purchased DiscoveRx (KinomeScan)

KinomeScan kinase panel [2] = target: T2, KinomeScan kinase panel (Homo sapiens, UniProt P19784); details: CSNK2A2, 10 µM; read-out: score (%)
T2 construct: purchased DiscoveRx (KinomeScan)

KinomeScan kinase panel [3] = target: T3, KinomeScan kinase panel (Homo sapiens, UniProt P27361); details: ERK1, 10 µM; read-out: score (%)
T3 construct: purchased DiscoveRx (KinomeScan)

KinomeScan kinase panel [4] = target: T4, KinomeScan kinase panel (Homo sapiens, UniProt P52564); details: MEK6, 10 µM; read-out: score (%)
T4 construct: purchased DiscoveRx (KinomeScan)
T4 sequence (P52564 1-334): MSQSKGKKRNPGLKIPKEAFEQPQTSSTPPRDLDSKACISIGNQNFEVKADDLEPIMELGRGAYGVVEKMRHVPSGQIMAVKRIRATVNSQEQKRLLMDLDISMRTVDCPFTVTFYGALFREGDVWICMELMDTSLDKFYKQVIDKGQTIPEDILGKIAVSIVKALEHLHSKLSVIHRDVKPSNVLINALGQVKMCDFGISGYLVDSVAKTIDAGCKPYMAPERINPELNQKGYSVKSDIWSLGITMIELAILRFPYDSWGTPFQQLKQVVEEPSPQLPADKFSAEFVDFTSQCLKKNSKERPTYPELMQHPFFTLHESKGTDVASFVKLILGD

KinomeScan kinase panel [5] = target: T5, KinomeScan kinase panel (Homo sapiens, UniProt Q13554); details: CAMK2B, 10 µM; read-out: score (%)
T5 construct: purchased DiscoveRx (KinomeScan)

KinomeScan kinase panel [6] = target: T6, KinomeScan kinase panel (Homo sapiens, UniProt Q14164); details: IKK-epsilon, 10 µM; read-out: score (%)
T6 construct: purchased DiscoveRx (KinomeScan)
T6 sequence (Q14164 1-716): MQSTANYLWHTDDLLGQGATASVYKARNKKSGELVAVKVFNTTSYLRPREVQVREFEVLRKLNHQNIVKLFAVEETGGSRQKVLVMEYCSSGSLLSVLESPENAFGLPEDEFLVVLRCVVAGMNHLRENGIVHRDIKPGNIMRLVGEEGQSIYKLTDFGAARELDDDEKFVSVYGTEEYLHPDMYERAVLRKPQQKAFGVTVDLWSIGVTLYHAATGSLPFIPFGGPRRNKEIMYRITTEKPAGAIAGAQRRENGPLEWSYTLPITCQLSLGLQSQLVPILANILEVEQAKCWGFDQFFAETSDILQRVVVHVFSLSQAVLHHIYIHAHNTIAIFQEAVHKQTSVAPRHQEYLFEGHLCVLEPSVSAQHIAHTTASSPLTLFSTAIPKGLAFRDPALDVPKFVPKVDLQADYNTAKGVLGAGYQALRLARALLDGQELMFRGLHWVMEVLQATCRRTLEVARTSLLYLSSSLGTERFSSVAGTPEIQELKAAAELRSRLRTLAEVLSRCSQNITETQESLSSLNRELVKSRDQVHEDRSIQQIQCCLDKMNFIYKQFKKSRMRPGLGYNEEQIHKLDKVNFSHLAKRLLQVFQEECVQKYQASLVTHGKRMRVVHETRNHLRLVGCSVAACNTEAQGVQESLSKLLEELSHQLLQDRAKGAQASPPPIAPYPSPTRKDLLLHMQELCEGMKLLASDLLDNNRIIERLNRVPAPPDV

KinomeScan kinase panel [7] = target: T7, KinomeScan kinase panel (Homo sapiens, UniProt Q92918); details: read-out: score (%)
T7 construct: purchased DiscoveRx (KinomeScan)

KinomeScan kinase panel [8] = target: T8, KinomeScan kinase panel (Homo sapiens, UniProt Q96NX5); details: CAMK1G, 10 µM; read-out: score (%)
T8 construct: purchased DiscoveRx (KinomeScan)

KinomeScan kinase panel [9] = target: T9, KinomeScan kinase panel (Homo sapiens, UniProt Q99683); details: read-out: score (%)
T9 construct: purchased DiscoveRx (KinomeScan)
T9 sequence (Q99683 1-1374): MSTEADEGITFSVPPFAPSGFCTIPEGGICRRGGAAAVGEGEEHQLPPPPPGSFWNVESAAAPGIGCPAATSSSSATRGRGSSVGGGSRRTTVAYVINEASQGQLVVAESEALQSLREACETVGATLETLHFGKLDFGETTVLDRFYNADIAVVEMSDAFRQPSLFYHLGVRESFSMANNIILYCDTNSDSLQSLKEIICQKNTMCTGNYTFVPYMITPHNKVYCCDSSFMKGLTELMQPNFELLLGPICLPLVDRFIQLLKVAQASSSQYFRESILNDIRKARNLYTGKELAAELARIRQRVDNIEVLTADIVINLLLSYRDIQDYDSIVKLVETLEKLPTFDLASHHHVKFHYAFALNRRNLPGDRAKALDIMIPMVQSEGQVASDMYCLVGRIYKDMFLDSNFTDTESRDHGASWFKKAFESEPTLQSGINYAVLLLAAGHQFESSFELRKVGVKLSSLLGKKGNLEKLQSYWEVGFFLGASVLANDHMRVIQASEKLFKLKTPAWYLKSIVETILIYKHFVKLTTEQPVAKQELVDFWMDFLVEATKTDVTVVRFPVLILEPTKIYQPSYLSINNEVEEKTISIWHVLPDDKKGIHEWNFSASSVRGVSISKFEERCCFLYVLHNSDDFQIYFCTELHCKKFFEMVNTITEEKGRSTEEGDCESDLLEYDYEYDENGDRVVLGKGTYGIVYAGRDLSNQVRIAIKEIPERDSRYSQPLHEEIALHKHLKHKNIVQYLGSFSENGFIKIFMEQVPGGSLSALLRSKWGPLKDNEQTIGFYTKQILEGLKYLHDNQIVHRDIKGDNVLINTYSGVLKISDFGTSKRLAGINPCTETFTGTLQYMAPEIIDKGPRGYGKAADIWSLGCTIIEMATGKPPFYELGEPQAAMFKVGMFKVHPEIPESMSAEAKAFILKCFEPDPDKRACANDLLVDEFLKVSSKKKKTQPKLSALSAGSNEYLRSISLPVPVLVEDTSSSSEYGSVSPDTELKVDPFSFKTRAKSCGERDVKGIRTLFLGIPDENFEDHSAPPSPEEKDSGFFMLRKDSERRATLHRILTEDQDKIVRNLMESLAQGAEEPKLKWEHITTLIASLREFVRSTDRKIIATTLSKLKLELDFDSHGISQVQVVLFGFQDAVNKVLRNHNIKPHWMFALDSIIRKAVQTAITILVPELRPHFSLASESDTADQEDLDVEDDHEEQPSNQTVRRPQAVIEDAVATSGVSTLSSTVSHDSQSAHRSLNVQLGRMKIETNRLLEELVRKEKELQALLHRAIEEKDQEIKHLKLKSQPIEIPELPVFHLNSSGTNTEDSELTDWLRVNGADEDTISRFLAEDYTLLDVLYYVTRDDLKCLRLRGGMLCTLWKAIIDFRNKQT

T2 sequence (P19784 whole entry): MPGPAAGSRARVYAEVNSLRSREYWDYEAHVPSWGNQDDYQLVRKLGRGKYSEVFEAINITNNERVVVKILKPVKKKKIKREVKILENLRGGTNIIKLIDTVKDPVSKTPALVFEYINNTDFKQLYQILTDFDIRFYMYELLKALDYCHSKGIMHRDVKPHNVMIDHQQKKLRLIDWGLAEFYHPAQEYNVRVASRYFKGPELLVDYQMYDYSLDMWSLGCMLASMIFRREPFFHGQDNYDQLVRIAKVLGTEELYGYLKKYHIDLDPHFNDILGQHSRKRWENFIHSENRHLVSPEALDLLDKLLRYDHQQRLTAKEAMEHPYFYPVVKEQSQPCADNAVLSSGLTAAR
T5 sequence (Q13554 whole entry): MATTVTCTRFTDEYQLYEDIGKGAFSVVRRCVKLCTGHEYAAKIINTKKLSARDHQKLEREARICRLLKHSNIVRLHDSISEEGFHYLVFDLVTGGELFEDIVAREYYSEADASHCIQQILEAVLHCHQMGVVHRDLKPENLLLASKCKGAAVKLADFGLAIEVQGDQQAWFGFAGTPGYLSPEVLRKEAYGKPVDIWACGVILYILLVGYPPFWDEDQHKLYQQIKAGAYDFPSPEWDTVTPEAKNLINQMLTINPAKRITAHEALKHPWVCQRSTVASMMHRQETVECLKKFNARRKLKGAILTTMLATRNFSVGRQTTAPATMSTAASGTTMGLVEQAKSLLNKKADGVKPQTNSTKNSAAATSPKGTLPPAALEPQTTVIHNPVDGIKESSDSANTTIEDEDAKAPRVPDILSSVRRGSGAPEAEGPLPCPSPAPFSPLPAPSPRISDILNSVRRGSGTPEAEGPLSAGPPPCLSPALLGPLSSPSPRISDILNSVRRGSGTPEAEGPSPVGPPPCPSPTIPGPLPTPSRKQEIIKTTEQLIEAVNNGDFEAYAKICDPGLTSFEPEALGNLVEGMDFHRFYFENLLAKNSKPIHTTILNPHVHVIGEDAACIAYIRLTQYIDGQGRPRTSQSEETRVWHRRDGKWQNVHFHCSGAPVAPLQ
T8 sequence (Q96NX5 whole entry): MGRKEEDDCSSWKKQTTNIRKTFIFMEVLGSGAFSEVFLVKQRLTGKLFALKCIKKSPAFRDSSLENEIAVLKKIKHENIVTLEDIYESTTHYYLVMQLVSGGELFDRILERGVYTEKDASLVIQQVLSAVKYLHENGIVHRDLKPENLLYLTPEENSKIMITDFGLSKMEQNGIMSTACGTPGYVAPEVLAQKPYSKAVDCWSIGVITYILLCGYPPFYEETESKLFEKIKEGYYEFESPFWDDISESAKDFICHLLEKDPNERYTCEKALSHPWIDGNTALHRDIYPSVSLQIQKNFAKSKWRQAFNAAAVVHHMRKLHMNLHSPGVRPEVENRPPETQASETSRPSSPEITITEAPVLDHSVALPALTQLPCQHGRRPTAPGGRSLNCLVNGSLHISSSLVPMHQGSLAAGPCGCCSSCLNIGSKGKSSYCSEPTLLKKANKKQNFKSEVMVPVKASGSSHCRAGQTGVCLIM
T3 sequence (P27361 whole entry): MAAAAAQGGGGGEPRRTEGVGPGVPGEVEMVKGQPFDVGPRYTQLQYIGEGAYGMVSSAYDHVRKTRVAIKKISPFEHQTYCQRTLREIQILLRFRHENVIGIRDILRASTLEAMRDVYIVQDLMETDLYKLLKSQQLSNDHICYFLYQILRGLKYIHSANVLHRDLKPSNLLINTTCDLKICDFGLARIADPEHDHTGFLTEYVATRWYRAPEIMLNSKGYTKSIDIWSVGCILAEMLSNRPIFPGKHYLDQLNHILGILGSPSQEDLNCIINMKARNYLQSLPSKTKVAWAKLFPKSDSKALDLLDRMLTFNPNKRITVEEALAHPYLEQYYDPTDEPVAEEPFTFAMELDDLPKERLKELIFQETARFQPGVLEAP
T7 sequence (Q92918 whole entry): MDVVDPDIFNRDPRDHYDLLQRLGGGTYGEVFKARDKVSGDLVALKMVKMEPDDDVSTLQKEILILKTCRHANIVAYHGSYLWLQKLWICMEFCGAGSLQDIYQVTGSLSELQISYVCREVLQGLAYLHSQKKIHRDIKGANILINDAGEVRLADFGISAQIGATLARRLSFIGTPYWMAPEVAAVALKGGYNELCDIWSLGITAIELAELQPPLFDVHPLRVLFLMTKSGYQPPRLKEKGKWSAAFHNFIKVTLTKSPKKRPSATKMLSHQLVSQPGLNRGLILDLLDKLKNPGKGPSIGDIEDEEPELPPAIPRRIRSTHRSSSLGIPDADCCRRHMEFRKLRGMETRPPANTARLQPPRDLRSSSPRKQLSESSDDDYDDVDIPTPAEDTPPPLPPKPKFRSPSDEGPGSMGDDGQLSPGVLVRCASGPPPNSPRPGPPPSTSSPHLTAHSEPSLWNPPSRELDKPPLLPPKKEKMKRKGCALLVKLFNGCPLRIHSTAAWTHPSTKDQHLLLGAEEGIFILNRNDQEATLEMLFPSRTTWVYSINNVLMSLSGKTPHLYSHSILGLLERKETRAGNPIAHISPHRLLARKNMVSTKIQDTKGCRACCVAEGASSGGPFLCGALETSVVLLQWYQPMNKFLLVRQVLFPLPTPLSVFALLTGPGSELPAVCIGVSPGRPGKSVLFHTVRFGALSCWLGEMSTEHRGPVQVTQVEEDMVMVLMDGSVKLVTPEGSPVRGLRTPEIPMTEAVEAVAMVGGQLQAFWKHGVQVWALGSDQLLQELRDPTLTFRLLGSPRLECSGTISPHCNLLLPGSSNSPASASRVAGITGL
T1 sequence (P04049 whole entry): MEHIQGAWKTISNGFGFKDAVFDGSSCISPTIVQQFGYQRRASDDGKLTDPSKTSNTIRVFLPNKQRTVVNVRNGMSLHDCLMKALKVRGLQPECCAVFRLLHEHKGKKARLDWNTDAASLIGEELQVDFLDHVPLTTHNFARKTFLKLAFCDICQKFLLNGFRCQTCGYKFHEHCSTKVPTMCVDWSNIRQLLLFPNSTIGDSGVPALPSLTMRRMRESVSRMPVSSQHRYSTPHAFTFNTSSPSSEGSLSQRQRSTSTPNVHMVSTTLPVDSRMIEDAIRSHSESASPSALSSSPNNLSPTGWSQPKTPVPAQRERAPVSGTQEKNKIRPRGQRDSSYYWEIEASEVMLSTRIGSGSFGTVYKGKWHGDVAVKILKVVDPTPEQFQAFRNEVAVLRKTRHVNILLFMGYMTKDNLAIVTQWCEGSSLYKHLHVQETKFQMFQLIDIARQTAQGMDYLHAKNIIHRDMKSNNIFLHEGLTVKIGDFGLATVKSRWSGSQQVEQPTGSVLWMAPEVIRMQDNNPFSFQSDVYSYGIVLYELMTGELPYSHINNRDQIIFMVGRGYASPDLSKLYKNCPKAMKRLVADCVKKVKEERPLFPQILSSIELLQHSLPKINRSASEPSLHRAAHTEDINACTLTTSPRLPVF

remaining binding at 10 µM (KinomeScan kinase panel [7]; MAP4K1, 10 µM) | remaining binding at 10 µM (KinomeScan kinase panel [9]; MAP3K5, 10 µM) | Compound | remaining binding at 10 µM (KinomeScan kinase panel [1]; RAF1, 10 µM) | remaining binding at 10 µM (KinomeScan kinase panel [2]) | remaining binding at 10 µM (KinomeScan kinase panel [3]) | remaining binding at 10 µM (KinomeScan kinase panel [4]) | remaining binding at 10 µM (KinomeScan kinase panel [5]) | remaining binding at 10 µM (KinomeScan kinase panel [6]) | remaining binding at 10 µM (KinomeScan kinase panel [7]; HPK1, 10 µM) | remaining binding at 10 µM (KinomeScan kinase panel [8]) | remaining binding at 10 µM (KinomeScan kinase panel [9]; ASK1, 10 µM) | remaining binding at 10 µM (KinomeScan kinase panel [1]; kinase RAF1, 10 µM)
– | – | CCN1CCN(Cc2ccc(NC(=O)c3ccc(C)c(NC(=O)c4cncc(-c5cccs5)c4)c3)cc2C(F)(F)F)CC1 [ALW-II-41-27] | 1.4% | > 30% | > 30% | > 30% | > 30% | > 30% | 0.75% | > 30% | > 30% | –
0.1% | > 30% | CCN1CCN(Cc2ccc(NC(=O)c3ccc(C)c(/C=C/c4cnc5[nH]ccc5c4Cl)c3)cc2C(F)(F)F)CC1 [HG-6-63-01, (E)-3-(2-(4-chloro-1H-pyrrolo[2,3-b]pyridin-5-yl)vinyl)-N-(4-((4-ethylpiperazin-1-yl)methyl)-3-(trifluoromethyl)phenyl)-4-methylbenzamide] | 2.4% | > 30% | > 30% | > 30% | > 30% | > 30% | – | > 30% | – | –
– | – | CCN1CCN(Cc2ccc(NC(=O)c3ccc(C)c(C#Cc4cccnc4)c3)cc2C(F)(F)F)CC1 [XMD15-44] | – | > 30% | > 30% | > 30% | > 30% | > 30% | 0.4% | > 30% | > 30% | 0.5%
